Experimental data reported in EP0791603A2, “Pure somatostatin antagonist and methods of use thereof” (American Cyanamid Company, priority 1996, dated 1997).
Positions of bridges follow the written chain, without caps; N, C: chain ends. Non-standard residues stand in square brackets, D forms with d. Residues, ends and D or L forms follow the SMILES beside them. NMePhe(4-NO2) = CN[C@@H](Cc1ccc([N+](=O)[O-])cc1)C(=O)O; Phe(4-NO2) = N[C@@H](Cc1ccc([N+](=O)[O-])cc1)C(=O)O; 2Nal = N[C@@H](Cc1ccc2ccccc2c1)C(=O)O; d2Nal = N[C@H](Cc1ccc2ccccc2c1)C(=O)O; Abu = CC[C@H](N)C(=O)O

The molecules below were run against SSTR2 (Rattus norvegicus, UniProt P30680) (assay: Cyclic AMP accumulation in intact cells (adrenal binding protein method)). Details: forskalin stimulated c-AMP levels in intact cells, 15 minutes at 37°C; read-out: % IA (% intrinsic activity).
SSTR2, sequence (P30680 whole entry): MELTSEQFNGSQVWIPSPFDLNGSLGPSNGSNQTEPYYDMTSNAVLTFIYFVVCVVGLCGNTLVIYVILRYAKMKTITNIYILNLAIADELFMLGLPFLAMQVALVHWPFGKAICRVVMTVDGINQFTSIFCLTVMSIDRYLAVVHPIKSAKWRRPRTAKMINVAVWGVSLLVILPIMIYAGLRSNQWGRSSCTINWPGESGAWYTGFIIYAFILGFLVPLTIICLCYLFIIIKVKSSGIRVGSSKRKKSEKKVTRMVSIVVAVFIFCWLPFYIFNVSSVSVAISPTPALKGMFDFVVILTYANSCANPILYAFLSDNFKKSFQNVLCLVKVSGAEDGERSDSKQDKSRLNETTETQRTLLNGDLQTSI
Type: cell-based
Source text: Cyclic AMP accumulation assays are used to determine the functional coupling of somatostatin receptors to effectors. All five cloned somatostatin receptors inhibit cyclic AMP accumulation and adenylyl cyclone activity ^1 ^,2,3,4,5. This evaluation measures cyclic AMP accumulation from intact cells using the adrenal binding protein method. Signal transduction by somatostatin is mediated by lowering intracellular c-AMP levels. This functional assay measures the ability of the test compound to inhibit the effect of somatostatin on forskalin stimulated c-AMP levels. ^1 K. Yasuda, S. Rens-Damiano, C. D. Breder, S. F. Law, C. B. Saper, T. Reisine and G. I. Bell, J. Biol. Chem. 267,20422-20428 (1992). ^2 J. F. Bruno, Y. Xu, J. Song and M. Berelowitz, Proc. Natl. Acad. Sci. USA 89, 11151-11155 (1992). ^3 A. M. O'Carrol, S. J. Lolait, M. König and L. Mahan, Mol. Pharmacol. 42, 939-946 (1992). ^4 J. R. Hadcock, J. Strnad and C. M. Eppler, Mol. Pharmacol. 45, 410-416 (1994). ^5 J. Strnad, C. M. Eppler, M. Corbett and J. R. Hadcock, Biochem. Biophys. Res. Commun.191, 968-976 (1993).
Bovine adrenal gland extracts are prepared according to the method of Brown et al^6 with minor modifications. […] Two-four adrenals are thawed and the cortices are separated on ice: chopped into small pieces; resuspended in 1.5 volumes of buffer containing 0.25 M sucrose, 50 mM Tris-HCl pH 7.4, 25 mM KCl, 5 mM MgCl2 and protease inhibitors (5 µg/ml leupeptin, 5µg/ml aprotinin, 100 µg/ml bacitracin, and 100 µg/ml benzamidine; homogenized with a Polytron and centrifuged for 5 minutes. The resultant supernatant is saved and centrifuged for 15 minutes. This resultant supernatant is saved and stored as 1 mL aliquots at -80°C. Four adrenals glands are usually sufficient to prepare 30-50 one mL aliquots. Each preparation is tested with standards at different dilutions before use in the following experiment. ^6 B. L. Brown, J. D. M. Albano, R. P. Ekins and A. M. Sgherzi, Biochem. J. 121, 561-562 (1971).
Somatostatin-mediated inhibition of cyclic AMP accumulation is measured in intact cells co-incubated with the diterpene forskalin (5 µM) which activates adenylyl cyclase directly and stimulates cyclic AMP accumulation in cells. The medium is aspirated from two 100 mm plates of cells, a 5 mL portion of phosphate-buffered saline containing 2 mM EDTA is added to each plate. The cells are washed off the plate, without scraping. The cells are then pelleted and resuspended in Kreb's Ringers Phosphate (KRP) containing 2 mM CaCl2 (added fresh), washed once and resuspended in 2 ml of KRP with a CaCl2 containing 100 µM IBMX. The cells are counted and the concentration of cells is adjusted to 50,000/70 µl and incubated 15 minutes at room temperature before starting the assay.
Polypropylene tubes (12 x 75) are labelled (test samples are done in triplicate including controls). Test samples are prepared containing the following: no added peptide sample (basal), forskalin alone (10 µM final), and forskalin plus various amounts of S-14 (1 X 10^-10M to 1 X 10^-6M, final). The first two steps are done on the bench top. Volumes are adjusted with KRP and 10 µl 1 mM IBMX is added to each tube. The tubes are placed in a shaking 37°C water bath and 70 µl cells is added at 15 second intervals until final volume/tube is 100 µL (concentration of cells is 25-100,000/tube). The tubes are incubated for 15 minutes at 37°C, treated with 10 µl of 1.0 N HCl at 10 second intervals and transfered to an ice bath for 3 minutes (tubes may be stored overnight). The samples are neutralized with […] 1.0 N NaOH containing 250 mM Tris, pH 7.4.
The test tube racks are placed half way down in a large chest of ice. A 50µl portion of cyclic AMP standard (Sigma) is aliquoted to each tube in triplicate (e.g. 0, 0.5, 1.0, 2.0, 4.0, 8.0, 16.0 pmoles/tube), then 70µl KRP is added to each tube of standard. One set of tubes containing 220 µl KRP is set up for the background. […]

| SMILES | Emax |
| --- | --- |
| C[C@@H](O)[C@@H]1NC(=O)[C@H](CCCCN)NC(=O)[C@@H](Cc2c[nH]c3ccccc23)NC(=O)[C@H](Cc2ccc(O)cc2)NC(=O)[C@H](NC(=O)[C@@H](N)Cc2ccc([N+](=O)[O-])cc2)CSSC[C@@H](C(=O)N[C@H](Cc2ccc(O)cc2)C(N)=O)NC1=O | 12% |
| CC(C)[C@@H]1NC(=O)[C@H](CCCCN)NC(=O)[C@@H](Cc2c[nH]c3ccccc23)NC(=O)[C@H](Cc2ccc(O)cc2)NC(=O)[C@H](NC(=O)[C@H](N)Cc2ccc3ccccc3c2)CSSC[C@@H](C(=O)N[C@@H](Cc2ccc(O)cc2)C(N)=O)NC1=O (H-[d2Nal][dC]Y[dW]KVCY-NH2; disulfide 2-7) | 8% |
| C[C@@H](O)[C@@H]1NC(=O)[C@H](CCCCN)NC(=O)[C@@H](Cc2c[nH]c3ccccc23)NC(=O)[C@H](Cc2ccc(O)cc2)NC(=O)[C@H](NC(=O)[C@@H](N)Cc2ccc([N+](=O)[O-])cc2)CSSC[C@@H](C(=O)N[C@@H](Cc2ccc(O)cc2)C(N)=O)NC1=O | 5% |
| CC(C)[C@@H]1NC(=O)[C@H](CCCCN)NC(=O)[C@@H](Cc2c[nH]c3ccccc23)NC(=O)[C@H](Cc2ccc(O)cc2)NC(=O)[C@H](NC(=O)[C@@H](N)Cc2ccc3ccccc3c2)CSSC[C@@H](C(=O)N[C@@H](Cc2ccc(O)cc2)C(N)=O)NC1=O (H-[2Nal][dC]Y[dW]KVCY-NH2; disulfide 2-7; N-terminus assumed) | 13% |

Next, values leading:

| Emax | SMILES |
| --- | --- |
| 11% | CC(C)[C@@H]1NC(=O)[C@H](CCCCN)NC(=O)[C@@H](Cc2c[nH]c3ccccc23)NC(=O)[C@H](Cc2ccc(O)cc2)NC(=O)[C@H](NC(=O)[C@@H](N)Cc2ccc([N+](=O)[O-])cc2)CSSC[C@@H](C(=O)N[C@@H](Cc2ccc(O)cc2)C(N)=O)NC1=O (H-[Phe(4-NO2)][dC]Y[dW]KVCY-NH2; disulfide 2-7 (inferred)) |
| -26% | CC(=O)N[C@@H](Cc1ccc2ccccc2c1)C(=O)N[C@@H]1CSSC[C@@H](C(=O)N[C@@H](Cc2ccc(O)cc2)C(N)=O)NC(=O)[C@H]([C@@H](C)O)NC(=O)[C@H](CCCCN)NC(=O)[C@@H](Cc2c[nH]c3ccccc23)NC(=O)[C@H](Cc2ccc(O)cc2)NC1=O (Ac-[2Nal][dC]Y[dW]KTCY-NH2; disulfide 2-7 (inferred)) |
| 8% | CC(C)[C@@H]1NC(=O)[C@H](CCCCN)NC(=O)[C@@H](Cc2c[nH]c3ccccc23)NC(=O)[C@H](Cc2ccc(O)cc2)NC(=O)[C@H](NC(=O)[C@@H](N)Cc2ccc([N+](=O)[O-])cc2)CSSC[C@@H](C(=O)N[C@@H](Cc2ccc3ccccc3c2)C(N)=O)NC1=O (H-[Phe(4-NO2)][dC]Y[dW]KVC[2Nal]-NH2; disulfide 2-7 (inferred)) |
| 21% | CC[C@@H]1NC(=O)[C@H](CCCCN)NC(=O)[C@@H](Cc2c[nH]c3ccccc23)NC(=O)[C@H](Cc2ccc(O)cc2)NC(=O)[C@H](NC(=O)[C@@H](N)Cc2ccc([N+](=O)[O-])cc2)CSSC[C@@H](C(=O)N[C@@H](Cc2ccc(O)cc2)C(N)=O)NC1=O (H-[Phe(4-NO2)][dC]Y[dW]K[Abu]CY-NH2; disulfide 2-7 (inferred)) |
| -3% | CC(=O)N[C@@H](Cc1ccc([N+](=O)[O-])cc1)C(=O)N[C@@H]1CSSC[C@@H](C(=O)N[C@H](Cc2ccc(O)cc2)C(N)=O)NC(=O)[C@H]([C@@H](C)O)NC(=O)[C@H](CCCCN)NC(=O)[C@@H](Cc2c[nH]c3ccccc23)NC(=O)[C@H](Cc2ccc(O)cc2)NC1=O |
| 9% | CN[C@@H](Cc1ccc([N+](=O)[O-])cc1)C(=O)N[C@@H]1CSSC[C@@H](C(=O)N[C@@H](Cc2ccc(O)cc2)C(N)=O)NC(=O)[C@H](C(C)C)NC(=O)[C@H](CCCCN)NC(=O)[C@@H](Cc2c[nH]c3ccccc23)NC(=O)[C@H](Cc2ccc(O)cc2)NC1=O (H-[NMePhe(4-NO2)][dC]Y[dW]KVCY-NH2; disulfide 2-7 (inferred)) |
